Drawing on patent US8168642B2, “Dihydropyrimidine compounds and their uses in preparation of medicaments for treating and preventing antiviral diseases” (Beijing Molecule Science and Technology Co., Ltd., priority 2006, dated 2012), this text covers melting point, IC50 and TD50 for twelve compounds.

One data set deals with HBV DNA. Nature of the data set: Antiviral activity: inhibition of HBV DNA in supernatant of HepG 2.2.15 cells (dot blot hybridization). To be noted: Hepatitis B virus, HepG2.2.15, 192 h, 8 days incubation, HB-specific DNA in supernatant, read-out: IC50 (inhibitory effect on HBV DNA). The data set is classed as cell-based. As for the experimental part:
The antiviral effect of the compound of the present invention is determined according to the methods described by Sells, et al (M. A. Sells, M. L. Chen, G. Proc. Natl. Acad. Sci. 1987, 84, 1005-1009) and Korba, et al (B. E. Korba, J. L. Gerin Antiviral Research 1992, 19, 55-70).
(§1) The antiviral test was carried out in a 96-cell microtiter plate. The first column of the plate only contained a culture medium and HepG 2.2.15 cells, as a blank control.
(§2) First, a stock solution ([…]) of a test compound was dissolved in DMSO, and further diluted with a culture medium for growth of HepG 2.2.15 cells. Usually, the compound of the present invention was transferred by suction at a test concentration of 100 μg/ml (the first test concentration) to each cell of the second column of the microtiter plate, and then diluted with the culture medium for growth plus 2% fetal bovine serum (25 μL), by 2 times once, up to 2^10 times at the maximum.
(§3) Then, 225 μL of a suspension of HepG 2.2.15 cells in the culture medium for growth plus 2% fetal bovine serum (5×10^4 cells/ml) was added to each cell of the 96-cell microtiter plate.
(§4) The test mixture was incubated under the conditions of 37° C., 5% CO2 for 4 days. Then, the supernatant was removed by suction, and to each cell 225 μL of a new-prepared culture medium for growth was added. Again, the compound of the present invention was added with a solution of 25 μL. The obtained mixture was further incubated for 4 days.
Thereafter, the supernatant was collected, and sucked in vacuum to a 96-cell dot blot chamber covered by nylon film (used in accordance with the instructions for use provided by the manufacturer).
Determination of Antiviral Activity
After the supernatant was transferred onto the nylon film of the dot blot device (see the contents hereinabove), the supernatant of HepG 2.2.15 cells was denaturated (1.5 M NaCl/0.5 M NaOH), neutralized (3 M NaCl/0.5 M Tris. HCl, pH 7.5) and washed (2×SSC). Then, the filter film was kept at 120° C. for 2-4 hours, whereby DNA was baked on the filter film.
Usually, viral DNA of HepG 2.2.15 cells treated on the nylon film was detected by using a non-radioactive digoxigenin labeled HB-specific DNA probe. Wherein, each time the probe was labeled with digoxigenin, purified and hybridized according to the directions for use given by the manufacturer.
Briefly, pre-hybridization and hybridization were conducted with 5×SSC, 1× blocking agent, 0.1% N-lauroyl sarcosine, 0.02% SDS and 100 μg sperm DNA of black carp. After pre-hybridization at 60° C. for 30 min, a specific hybridization (at 60° C. for 14 hr) was conducted with 20-40 ng/ml digoxigenin labeled denaturalized HBV specific DNA. Then, the film was washed, followed by HBV DNA detection with digoxigenin antibody.
The immunology detection of digoxigenin labeled DNA was conducted according to the directions for use given by the manufacturer.
Briefly speaking, the film was washed and pre-hybridized with a blocking agent (in accordance with the directions for use given by the manufacturer), and then hybridized with an anti-DIG antibody that had been previously coupled onto an alkaline phosphatase for 30 min. After washing, an alkaline phosphatase substrate CSPD was added, and cultured together with the filter for 5 min, and then wrapped in a plastic film, followed by further culturing at 37° C. for 15 min. The filter was exposed to X-ray, and the chemical luminous signal (culturing for 10 min to 2 hr according to the signal strength) of HB-specific DNA on the film was detected, whereby a half inhibitory concentration (IC50) was calculated.
The half inhibitory concentration (IC50) refers to the concentration of the compound of the present invention which reduces the HB-specific band by 50% as compared with the untreated sample.

The subject of another data set is HepG 2.2.15 cells. The experiment in a line: Cytotoxicity in HepG 2.2.15 cells (cell morphology under microscope after 8 days, Reed&Muench). The data set is classed as cell-based. To be noted: pathological change of cells after 8 days. On the procedure:
as §1, §2, §3, §4
Prior to collection of the supernatant for determination of the antiviral effect, the change in cytotoxicity of HepG 2.2.15 cells was investigated by using optical microscopic technique or biochemical detection method (e.g., Alamar Blue staining or Trypan Blue staining).
Determination of Cytotoxicity
The substance-induced change in cytotoxicity in HepG 2.2.15 cells or in inhibition of the cells could be determined by using, e.g., optical microscopic technique, and expressed by the change of cell morphology. Such substance-induced changes, e.g., cell lysis, cavity formation or change in cell morphology, in HepG 2.2.15 cells were apparent as compared to the untreated cells.
Taking the observed pathological change of cells as index, the pathological change of cells was observed under microscope after 8 days, a complete destroy being indicated as 4; 75% being indicated as 3; 50% being indicated as 2; 25% being indicated as 1; and no pathological change being indicated as 0. The average extents of pathological change of cells and the inhibition percentages at various concentrations were calculated. According to Reed&Muench method, a half toxic concentration (TC50) and a maximum non-toxic concentration (TC0) were calculated.
TC50 refers to the concentration of the compound of the present invention when 50% of cells have a similar morphology to the corresponding cells as a control.

Regarding `CCOC(=O)C1=C(C)NC(c2sc(C)nc2C)=NC1c1ccc(F)cc1Cl` (stereo not drawn) [Example 40, ethyl 2-(2,4-dimethylthiazol-5-yl)-4-(2-chloro-4-fluorophenyl)-6-methyl-1,4-dihydro-pyrimidin-5-carboxylate], the melting point was 117 to 119 °C. In addition, the IC50 with HBV DNA worked out at 2590 nM. Further, in the data set on HepG 2.2.15 cells, the TD50 is 157.42 µM.

As for `CCOC(=O)C1=C(C)NC(c2csc(Cl)n2)=NC1c1ccc(F)cc1Cl` (stereo not drawn) [Example 33, ethyl 2-(2-chlorothiazol-4-yl)-4-(2-chloro-4-fluorophenyl)-6-methyl-1,4-dihydro-pyrimidin-5-carboxylate], the melting point is 141 to 143 °C. Moreover, in the data set with HBV DNA, the IC50 is 870 nM. The TD50 with HepG 2.2.15 cells came to 7.17 µM.

`CCOC(=O)C1=C(C)NC(c2cnc(NC(C)=O)s2)=NC1c1ccc(F)cc1Cl` (stereo not drawn) [Example 43, ethyl 2-(2-acetylaminothiazol-5-yl)-4-(2-chloro-4-fluorophenyl)-6-methyl-1,4-dihydro-pyrimidin-5-carboxylate] came in with a melting point of over 250 °C. In addition, in the data set on HBV DNA, the IC50 is 2290 nM. Also, in the data set with HepG 2.2.15 cells, the TD50 stood at 76.43 µM.

With `CCOC(=O)C1=C(C)NC(c2c(F)cc(F)cc2F)=NC1c1ccc(F)cc1Cl` (stereo not drawn) [Example 58, ethyl 2-(2,4,6-trifluorophenyl)-4-(2-chloro-4-fluorophenyl)-6-methyl-1,4-dihydro-pyrimidin-5-carboxylate], the melting point was 184 to 186 °C. Moreover, the IC50 in the data set with HBV DNA was 2600 nM. Moreover, in the data set on HepG 2.2.15 cells, the TD50 worked out at 32.50 µM.

As for `CCOC(=O)C1=C(C)NC(c2cncs2)=NC1c1ccc(F)cc1Cl` (stereo not drawn) [Example 42, ethyl 2-(thiazol-5-yl)-4-(2-chloro-4-fluorophenyl)-6-methyl-1,4-dihydro-pyrimidin-5-carboxylate], the melting point was 121 to 125 °C. Moreover, in the data set with HBV DNA, the IC50 is 3610 nM. The TD50 with HepG 2.2.15 cells was over 32.90 µM.

`CCOC(=O)C1=C(C)NC(c2cscn2)=NC1c1ccc(F)cc1Cl` (stereo not drawn) [Example 1, ethyl 2-(thiazol-4-yl)-4-(2-chloro-4-fluorophenyl)-6-methyl-1,4-dihydro-pyrimidin-5-carboxylate]: the melting point lay within 140 to 142 °C. The IC50 in the data set on HBV DNA worked out at 3350 nM. Further, in the data set on HepG 2.2.15 cells, the TD50 is 50.59 µM.

`CCOC(=O)C1=C(C)NC(c2scnc2C)=NC1c1ccc(F)cc1Cl` (stereo not drawn) [Example 38, ethyl 2-(4-methylthiazol-5-yl)-4-(2-chloro-4-fluorophenyl)-6-methyl-1,4-dihydro-pyrimidin-5-carboxylate] registered a melting point of 134 to 139 °C. Besides, in the data set with HBV DNA, the IC50 was 2220 nM. Moreover, the TD50 with HepG 2.2.15 cells was 54.33 µM.

`CCOC(=O)C1=C(C)NC(c2cnc(N)s2)=NC1c1ccc(F)cc1Cl` (stereo not drawn) [Example 44, ethyl 2-(2-aminothiazol-5-yl)-4-(2-chloro-4-fluorophenyl)-6-methyl-1,4-dihydro-pyrimidin-5-carboxylate]: the melting point is 132 to 135 °C. Besides, the IC50 in the data set with HBV DNA is 2690 nM. Further, the TD50 with HepG 2.2.15 cells came to 22.56 µM.

Take `COC(=O)C1=C(C)NC(c2csc(Cl)n2)=NC1c1ccc(F)cc1Cl` (stereo not drawn) [Example 34, methyl 2-(2-chlorothiazol-4-yl)-4-(2-chloro-4-fluorophenyl)-6-methyl-1,4-dihydro-pyrimidin-5-carboxylate]: the melting point was 160 to 162 °C. For the same compound, the IC50 in the data set on HBV DNA was found to be 2080 nM. The TD50 with HepG 2.2.15 cells is 12.35 µM.

`COC(=O)C1=C(C)NC(c2c(F)cc(F)cc2F)=NC1c1ccc(F)cc1Cl` (stereo not drawn) [Example 59, methyl 2-(2,4,6-trifluorophenyl)-4-(2-chloro-4-fluorophenyl)-6-methyl-1,4-dihydro-pyrimidin-5-carboxylate] showed a melting point of 112 to 114 °C. Moreover, the 50% inhibitory concentration (IC50) in the data set on HBV DNA amounted to 3390 nM. In the data set on HepG 2.2.15 cells, this compound gave a TD50 of over 30.30 µM.

The compound `CCOC(=O)C1=C(C)NC(c2nccn2C)=NC1c1ccc(F)cc1` (stereo not drawn) [Example 53, ethyl 2-(N-methyl-1H-imidazol-2-yl)-4-(4-fluorophenyl)-6-methyl-1,4-dihydro-pyrimidin-5-carboxylate] yielded a melting point of 134 to 136 °C. The half-inhibitory concentration (IC50) with HBV DNA was 10200 nM. The same compound yielded a TD50 in the data set with HepG 2.2.15 cells of 281.14 µM.

On to `CCOC(=O)C1=C(C)NC(c2c(F)cccc2F)=NC1c1ccc(F)cc1Cl` (stereo not drawn) [Example 56, ethyl 2-(2,6-difluorophenyl)-4-(2-chloro-4-fluorophenyl)-6-methyl-1,4-dihydro-pyrimidin-5-carboxylate], for which the melting point was in the range of 163 to 165 °C. Further, the half-inhibitory concentration (IC50) in the data set on HBV DNA was 2030 nM. In the data set with HepG 2.2.15 cells, this compound had a TD50 of 117.50 µM.

As usually defined, the melting point is the temperature of the solid-liquid transition. One may read the IC50 as the midpoint of a concentration-inhibition curve.
